Read-outs that look alike come from different tables or passages of the source.
How the values were obtained:
[1] = Satellite terminal tissue sampling after i.v. dosing; type: in vivo; details: n = 3 mice; for concentration at 0.5 h / concentration at 4 h: CD-1, mouse, iv, 1 mg kg^−1; for concentration at 0.5 h: 0.5 h post i.v. dosing
Method: Finally, to gain an understanding of the propensity for SSAs 3 and 5 to diffuse from the mouse circulatory system into the mouse tissues, satellite terminal tissue sampling was also performed.

[2] = tested on: calcein loaded phospholipid vesicles (PC, PG, PE-PG mix, E. coli total, E. coli polar); assay: Synthetic phospholipid vesicle lysis (calcein leakage) assay; details: SSA 1.5 mM, in words; for time dependence of vesicle lysis: 15 min vs 30 s, E. coli-based vesicles
Method: Here, samples of phospholipid vesicles containing the fluorescent dye calcein were prepared. At internal vesicle concentrations, this dye undergoes self-quenching. […] The increase in fluorescence output is proportional to the % of vesicle lysis observed upon the addition of SSAs 1–14, when calibrated against a solution of vesicles know to have undergone 100% lysis, see Fig. 5.
Fig. 5 The average (n = 3) percentage lysis (%) of vesicles (30 μM) composed of five different lipid compositions (Table 2), with an internal calcein concentration of 70 mM at 298 K. The % vesicle lysis was calculated through observation of increasing fluorescence emission (λem = 515 nm), following the addition of SSAs […] (1.5 mM) in a H2O/EtOH 95 : 5 solution after: (a) 30 s and; (b) 15 min. Triton X-100 (1%) was used as a positive control for 100% vesicle lysis. Data normalised to the addition of a H2O/EtOH 95 : 5 solution. Red = PC, yellow = PG, green = PE-PG mix, blue = E. coli total, pink = E. coli polar. Error = standard error.
Section 2: General Methods […]
Preparation of vesicles: All lipids were purchased as powder stocks from Avanti Polar Lipids. Lipid vesicles were prepared according to standard procedures.1 Each phospholipid was dissolved in chloroform (~ 10 mL) and the solvent was removed under reduced pressure. The thin film of dried lipid was further dried in vacuo for at least 2 hours. Lipid films were resuspended in the desired buffer and subjected to 9 freeze-thaw cycles in liquid nitrogen and extruded 20 times through a 200 nm […]
Preparation of calcein loaded vesicles: Lipid films were resuspended in buffer A (70 mM calcein, 10 mM TRIS pH 8.5, 0.5 mM EDTA, 110 mM NaCl, pH adjusted to 6-7) and subjected to 9 freeze-thaw cycles in liquid nitrogen and extruded 20 times through a 200 nm polycarbonate membrane. The suspension was run down a size exclusion column packed with sephadex G-50 using buffer B (10 mM TRIS pH 8.5, 0.5 mM EDTA, 110 mM NaCl). The hydrodynamic dimeter of the lipids was monitored using an Anton Paar LitesizerTM 500 to ensure the separation of free and entrapped calcein.
Phospholipid concentration was adjusted to 30 µM for vesicle leakage experiments.
Vesicle leakage assay: Black bottom 96-well plates were prepared with the appropriate lipid solution (100 µL, 30 µM) and desired SSA solution (100 µL) prepared in H2O/EtOH 95: 5. A solution of 1 % Triton X-100 (16) was used for a 100 % lysis control and a H2O/EtOH 95: 5 solution was used as a 0 % lysis control. Fluorescent measurements were taken at 25 °C using an excitation value of 495 nm and an optimised gain of 983. Data were acquired in endpoint mode. All experiments were repeated in triplicate to ensure experimental reproducibility. […]
Data

[3] = liver, read-out: Concentration of SSA in liver
[4] = liver, 4.0 h post i.v. dosing, read-out: Concentration of SSA in liver
[5] = lung, read-out: Concentration of SSA in lung
[6] = muscle, read-out: Concentration of SSA in muscle

For O=C(NCS(=O)(=O)O)Nc1ccc(C(F)(F)F)cc1 [SSA 3], the “Concentration of SSA in muscle” value ([1]; 4.0 h post i.v. dosing) was “BLQ”, the concentration at 0.5 h [1, 3] was 1230 nM and the concentration at 4 h [1, 4] was 206 nM. It also gave a concentration at 0.5 h [1, 5] of 86 nM, a concentration at 4 h ([1]; lung, 4.0 h post i.v. dosing, read-out: Concentration of SSA in lung) of 18 nM and a concentration at 0.5 h [1, 6] of 86 nM.

With O=C(NCS(=O)(=O)O)Nc1ccccc1-c1nc2ccccc2s1 [SSA 5] the “Concentration of SSA in lung” value ([1]; 4.0 h post i.v. dosing) was “BLQ”, the “Concentration of SSA in muscle” value ([1]; 4.0 h post i.v. dosing) was “BLQ” and the concentration at 0.5 h [1, 3] was 2200 nM. For the same compound, the concentration at 4 h [1, 4] was 429 nM, the concentration at 0.5 h [1, 5] was 153 nM and the concentration at 0.5 h [1, 6] was 172 nM.

In the case of Cc1ccc2nc(-c3ccc(NC(=O)NCS(=O)(=O)O)cc3)sc2c1 [SSA 6], the “time dependence of vesicle lysis” value [2] is reported as “time dependent enhancement of vesicle lysis”.

In the case of O=C(NCS(=O)(=O)O)Nc1ccc(-c2nc3ccccc3s2)cc1 [SSA 8], the “time dependence of vesicle lysis” value [2] is reported as “time dependent enhancement of vesicle lysis”.

For Cc1ccc2nc(-c3ccc(NC(=O)NCCC(=O)O)cc3)sc2c1 [SSA 9], the “time dependence of vesicle lysis” value [2] was “time dependent enhancement of vesicle lysis”.

For Cc1ccc2nc(-c3ccc(NC(=O)NCCCS(=O)(=O)O)cc3)sc2c1 [SSA 10], the “time dependence of vesicle lysis” value [2] was “time dependent enhancement of vesicle lysis”.

With Cc1ccc2nc(-c3ccc(NC(=O)NCC(=O)O)cc3)sc2c1 [SSA 11] the vesicle lysis activity ([2]; thirty seconds after SSA addition, five vesicle types) was “general surfactant type properties, similar to that of Triton”.

Source: paper PMC9400670, “Establishing the selective phospholipid membrane coordination, permeation and lysis properties for a series of ‘druggable’ supramolecular self-associating antimicrobial amphiphiles” (Chemical Science, 2022)
